These results are taken from patent US7026330B2, “Methods for treatment of acute lymphocytic leukemia” (The Children's Hospital of Philadelphia, priority 2002, dated 2006).

By inhibition is commonly meant the share of the control response that was lost under treatment.

Entries after “also recorded” stand apart in the source; their conditions may differ. Like-named read-outs stand apart in the source and are kept apart here. A value given as a limit tells only on which side of the number the result lay.

Data set [1] deals with Eμ-RET+ mice with advanced leukemia. Kind of data set: RAD001 in the ALL mouse model. The class given is in vivo. The note with it: daily oral administration. The text has this: RAD001 inhibits growth >50–90% in ALL cell lines. Daily oral administration of RAD001 extends survival almost 4 fold in Eμ-RET+ mice with advanced leukemia (high white blood count, large nodal masses, and massive hepatosplenomegaly) as compared to untreated littermates.

For data set [2], the system named is ALL cell lines. The data set can be described thus: RAD001 growth suppression in ALL cells in vitro. The class given is cell-based.
The conditions of data set [3]: cited from earlier work.
Data set [4] relates to Eμ-RET+ transgenic mice with overt disease. Particulars: for Plt, mean / WBC, mean / Weight, mean: treated group.
Experimental: Mice were assessed three times a week for overt signs of disease (enlarged lymph nodes, organomegaly, and anemia). […] Prior to randomization, easily accessible enlarged lymph nodes were biopsied for cell culture and further in vitro study. Peripheral blood for CBC with differential (HemaVet 850FS, Cell Technologies, Oxford, Conn.) and pK studies was obtained by eye bleeding at days 0, 7, 14 and then every other week until death. Peripheral blood as well as single cell suspension from bone marrow, lymph nodes and/or spleen was obtained at death. Weights were monitored three times a week. […] Animals were sacrificed when moribund. Event free survival (EFS) was determined from onset of disease until death, and analyzed using STATA 7.0 (STATA Corporation, College Park, Tex.).
The subject of data set [5] is steroid refractory severe acute GVHD. Particulars: cited from earlier work.
The conditions of data set [6]: cited from earlier work; for trough concentration: Phase III studies with cyclosporine, steroid, or both; for mean time-to-peak concentration: oral.
Data set [7] has as its system Eμ-RET+ transgenic mouse derived cell lines, #83, T309, #289, #420.2. The data set can be described thus: MTT proliferation assay, ALL cell lines. The class given is cell-based. As to the method:
(§1) Cell Preparation and Cell Culture Conditions. A single cell suspension of bone marrow or lymph nodes from leukemic Eμ-RET+ transgenic mice was prepared [Wasserman, 1998]. These ALL cells were maintained at 37° C. with 5% CO2 in RPMI-1640, L-Glutamine, 10 mM HEPES, 1 mM Sodium Pyruvate, 100 μM non-essential amino acids, 100 U/ml penicillin, 100 μg/ml streptomycin (GibCo-BRL, Rocksville, Md.), 50 μM 2-mercaptoethanol (FisherScientific, Fair Lawn, N.J.)+10% Fetal Calf Serum (HyClone, Logan, Utah)+10% Calf Serum (HyClone, Logan Utah) (C20 media) with 10 U/ml IL-7. Cell surface markers on these cells were determined by flow cytometry as described previously [Wasserman, 1998], and the phenotype was stable in culture over time.
(§2) Proliferation Assays. Cells were cultured in IL-7-free C20 media for 24 hours. […] Cell growth was assayed using methyl-thiazole-tetrazolin (MTT) [Mosmann, 1983]. After removing 50 μl media from each well, 10 μl MTT, 5 mg/ml, (Sigma, St. Louis, Mo.) was added to each sample and incubated for 4 hours. 150 μl 1% HCL/Isopropanol was added to each sample and mixed vigorously until all crystals dissolved. Absorbance was measured at OD595 using microplate spectrophotometer (Benchmark Microplate Reader, Bio-Rad Laboratories, Hercules, Calif.). Results are expressed as mean of absolute absorbance numbertreated sample divided by the mean of absolute absorbance numbercontrol sample. Results >1 indicates proliferation whereas results <1 indicates growth inhibition.

In data set [8] the test system is pro-B ALL cell line T309. The data set can be described thus: Apoptosis assay (Annexin V-FITC, flow cytometry). The class given is cell-based, mouse. Particulars: 72 hours, baseline 24%. Here is the method:
Apoptosis Assay. […] Levels of exposed phosphotidylserine on viable cells were measured using the ApoAlert Annexin V detection kit (Clontech, Palo Alto, Calif.). Cells were incubated with FITC-conjugated Annexin V, and log fluorescence intensity was analyzed by flow cytometry using a FACScan cytometer (Becton-Dickinson, Franklin Lakes, N.J.).
For orientation: Flow cytometry measures light scatter and fluorescence of single cells or particles in a stream.

Data set [9] deals with A20 mature B cell line. Kind of data set: Proliferation of mature B cell line A20. The note with it: data not shown. The class given is cell-based. As to the method: as §2
The test system of data set [10] is cell line #420.2. Kind of data set: MTT proliferation assay, cell line #420.2. In kind it is cell-based, mouse. The note with it: increasing rmIL-7 0–30 U/ml, no stroma, 4–5 days. Here is the method: as §1
(§3) Proliferation Assays. Cells were cultured in IL-7-free C20 media for 24 hours. […] Cell growth was assayed using methyl-thiazole-tetrazolin (MTT) [Mosmann, 1983]. After removing 50 μl media from each well, 10 μl MTT, 5 mg/ml, (Sigma, St. Louis, Mo.) was added to each sample and incubated for 4 hours. […] Absorbance was measured at OD595 using microplate spectrophotometer (Benchmark Microplate Reader, Bio-Rad Laboratories, Hercules, Calif.). Results are expressed as mean of absolute absorbance numbertreated sample divided by the mean of absolute absorbance numbercontrol sample. […]
In general terms: Tetrazolium dyes change colour on reduction, which living cells bring about.

The subject of data set [11] is cell line #83. The data set can be described thus: MTT proliferation assay, cell line #83. In kind it is cell-based, mouse. Particulars: increasing rmIL-7 0–30 U/ml, no stroma, 4–5 days. Here is the method: as §1, §3
In data set [12] the test system is ALL cell line #289. Kind of data set: MTT proliferation assay, cell line #289. The class given is cell-based, mouse. As to the method:
as §1, §2

The test system of data set [13] is cell line T309. The data set can be described thus: MTT proliferation assay, cell line T309. In kind it is cell-based, mouse. The note with it: increasing rmIL-7 0–30 U/ml, no stroma, 4–5 days. Here is the method:
as §1, §3

Data set [14] deals with #781 cell line. Kind of data set: MTT proliferation assay, cell line #781. In kind it is cell-based, mouse. Particulars: increasing rmIL-7 0–30 U/ml, no stroma, 4–5 days. As to the method: as §1, §3
The subject of data set [15] is phosphor-p70S6 kinase (Thr389). Kind of data set: Immunoblotting of p70S6 kinase in ALL cell line #289. The class given is cell-based, mouse. Particulars: 4 hours. As to the method:
Crude Lysate Preparation and Immunoblotting. […] After harvesting, cells were washed with ice cold PBS and then lysed in 100 μl of 1% Triton-X containing protease and phosphatase inhibitors (1 μg/ml apoprotinin, 1 μg/ml leupeptin, 1 mM […], 1 mM NaF, 0.1 mM AEBSF) at 4° C. for 5 minutes. Crude lysates were obtained by centrifugation (12,000 rpm at 4° C. for 20 minutes). Protein concentrations were determined using Bio-Rad Protein assay kit (Bio-Rad Laboratories, Hercules, Calif.). Equal amounts of protein were analyzed by 4–12% Tris-Bis gel electrophoresis and transferred to PVDF membranes (NuPage Invitrogen, Carlsbad, Calif.). Specific proteins were detected with anti-Phosphor-p70S6 kinase (Thr389) and anti-total p70S6 kinase antibodies (Cell Signaling Technologies, Beverly, Mass.) diluted in TTBS (1:500). Immunodetection was performed with horseradish peroxidase-conjugated anti-rabbit IgG and then developed by chemoluminescence (Amersham Pharmacia Biotech, Piscataway, N.J.). Immunoblots were stripped for reprobing by incubating immunoblots in stripping buffer (100 mM 2-mercaptoethanol, 2% sodium dodecyl sulphate, 62.5 mM Tris-HCl pH 6.7) for 30 minutes in 37° C. water bath with occasional agitation. […] Specific proteins were immunoblotted and detected as above.
A general note: In western blotting, separated proteins are transferred to a membrane and probed.

Data set [16] deals with YES proto-oncogene. Kind of data set: mRNA expression in ALL cells (Affymetrix MG-U74Av4 Genechips). The note with it: addition of IL-7. In kind it is cell-based. From the text:
We found the most profound change in expression in the YES proto-oncogene, a member of the src family of kinases. […] However, the ability of IL-7 to reverse rapamycin-induced growth inhibition may involve other target proteins downstream of p70S6 kinase, such as p27kip1 or cdk2.

[17] abbreviates: Mus musculus, 72 h, read-out: inhibition of growth.

For the molecule `CO[C@H]1C[C@@H]2CC[C@@H](C)[C@@](O)(O2)C(=O)C(=O)N2CCCC[C@H]2C(=O)O[C@H]([C@H](C)C[C@@H]2CC[C@@H](OCCO)[C@H](OC)C2)CC(=O)[C@H](C)/C=C(\C)[C@@H](O)[C@@H](OC)C(=O)[C@H](C)C[C@H](C)/C=C/C=C/C=C/1C` [RAD001, everolimus], in data set [1], the “extension of survival vs untreated littermates” value was approximately 4 fold, the nodal masses entry is reported as “disappearance of nodal masses” and the “peripheral WBC counts” value is on record as “normalization of peripheral WBC counts”. In addition, the growth inhibition in data set [2] is recorded as 50–90%.

In the case of `CO[C@H]1C[C@@H]2CC[C@@H](C)[C@@](O)(O2)C(=O)C(=O)N2CCCC[C@H]2C(=O)O[C@H]([C@H](C)C[C@@H]2CC[C@@H](O)[C@H](OC)C2)CC(=O)[C@H](C)/C=C(\C)[C@@H](O)[C@@H](OC)C(=O)[C@H](C)C[C@H](C)/C=C/C=C/C=C/1C` [rapamycin], the major side effects entry in data set [3] (adult organ rejection trials, 2 mg or 5 mg daily with cyclosporine and corticosteroids) is “thrombocytopenia, hypercholesteremia, hypertriglyceridemia, and diarrhea”. Besides, the “toxicities of CTC Grade III and IV” value in [3] (pediatric kidney transplantation, with corticosteroids and MMF) was “stomatitis, hypercholesteremia, and hypertriglyceridemia”. For the same molecule, the “toxicity in single dosing studies” value in [3] (single doses ranging from 3–21 mg/m^2) is listed as “No toxicity”. Further, in data set [4] (5 mg/kg IP daily), the “mean hemoglobin and platelet counts, untreated vs rapamycin treated mice” value was “not significantly different”; the “time to normalization of WBC after instituting therapy” value is 7 to 10 days; the “weights of treated versus untreated groups” value is recorded as “not significantly different”. In addition, the “average time from diagnosis to death” value in [4] (5 mg/kg IP daily, N=34, untreated 12 days (N=23), p<0.001) came out at 30 days. In addition, in data set [4] (5 mg/kg IP daily, single agent, advanced disease), the “extension of survival vs untreated mice” value is listed as approximately 3 fold. Also, the “WBC nadir of the typical mouse of FIG. 8” value in data set [4] (after 14 days of rapamycin, WBC 28.8 at presentation) was 3.2. Also, in data set [4] (D0), the “Plt, mean” value was 695000 µL⁻¹; the “WBC, mean” value was found to be 47800 µL⁻¹; the “Weight, mean” value is 25.6 grams. Moreover, in data set [4] (D7), the “Plt, mean” value came out at 584000 µL⁻¹ and the “WBC, mean” value was found to be 18500 µL⁻¹. Moreover, in [4] (D14), the “Weight, mean” value was determined as 28.1 grams. In data set [4] (at sacrifice), the “Plt, mean” value was found to be 573000 µL⁻¹; the “WBC, mean” value is 31000 µL⁻¹; the “Weight, mean” value was 28.10 grams. Also, in data set [4] (d21), the “Plt, mean” value came to 526000 µL⁻¹ and the “WBC, mean” value amounted to 14300 µL⁻¹. In addition, the “discontinuation of drug because of toxicities” value in data set [5] (21 patients) is 5 patients. Moreover, the “hemolytic uremic syndrome developed” value in data set [5] (cyclosporine dose not reduced) is given as 5 patients. The “most common side effects” value in data set [5] (in vivo) was “thrombocytopenia and neutropenia, elevated serum triglycerides and cholesterol”. In addition, the trough concentration in data set [6] (2 mg/day) was 8.58 ± 4.0 ng/mL. For the same molecule, the trough concentration in data set [6] (5 mg/day) was 17.3 ± 7.4 ng/mL. Moreover, in data set [6] (human, in vivo), the “elimination of the drug via the GI tract” value is given as 91%; the metabolism result was “intestinal and hepatic CYP3A4 enzyme family”. The “time to near steady-state concentrations” value in data set [6] (loading dose of 3 times the maintenance dose, most patients) was not above 1 days. Besides, the mean time-to-peak concentration in [6] (healthy subjects) is 1 h. The mean time-to-peak concentration in data set [6] (renal transplant recipients) is 2 h. Further, the “typical serum levels of patients” value in [6] (patients on rapamycin [MacDonald, 2000]) was 8 to 12 ng/mL. Also, in data set [6] (pediatric patients 5–11 years), the half-lives result is on record as “shorter” and the oral clearances entry is “greater”. The “dose dependence of concentrations” value in [6] (stable renal transplant patients, between 3 and 12 mg/m^2) was “dose proportional”. Moreover, in [7] (setting [17]), the inhibition at 0.001 µg/mL was more than 40% and the inhibition at 0.1 µg/mL was more than 70%. Besides, the “cells labeled with Annexin V” value in [8] (1 ng/ml rapamycin) amounted to 44%. Also, the “cells labeled with Annexin V” value in [8] (100 ng/ml rapamycin) turned out to be 51%.

B1: rmIL-7: recombinant mouse IL-7 (rmIL-7) (Leinco Technologies, Inc.) (protein, UniProt P10168 26-154, looked up)
Interleukin-7: ECHIKDKEGKAYESVLMISIDELDKMTGTDSNCPNNEPNFFRKHVCDDTKEAAFLNRAARKLKQFLKMNISEEFNVHLLTVSQGTQTLVNCTSKEEKNVKEQKKNDACFLKRLLREIKTCWNKILKGSI
Consider B1, for which the proliferation entry in [9] is given as “not affected”. Further, the increase in proliferation in [10] was 2.2 fold; in data set [11], approximately 100 fold; in data set [12] (increasing rmIL-7 0–30 U/ml, no stroma, 4–5 days), 2.2 fold; in data set [13], 3.7 fold; in [14], 16 fold. The “reversal of rapamycin-induced growth inhibition” value in data set [12] (rmIL-7 10 U/ml with rapamycin 1 ng/ml, 3 days) was “completely reverses”. In addition, the “reversal of rapamycin's effect on cell growth” value in data set [12] (rmIL-7 10 U/ml with rapamycin 100 ng/ml, 3 days, only partial) was ~80 % of baseline. Besides, in data set [15] (10 U/ml IL-7 + 100 ng/ml rapamycin, listed as IL-7), the “effect on rapamycin-induced decrease in phosphor-p70S6 kinase” value was “reversed; also recorded: restored to baseline”. Moreover, the “p70S6 kinase total protein levels” value in data set [15] (100 ng/ml rapamycin or 10 U/ml IL-7) is “unchanged”. In addition, the “effect on YES expression in rapamycin-treated cells” value in data set [16] is “completely rescued”. Further, the “concentration at which the response appears to plateau” value in [7] (cell lines #83, #781, T309, #289, #420.2) is recorded as 10–30 U/ml.
